In brackets after ≈: the same amount, converted by molar mass. Read-outs that look alike come from different tables or passages of the source.
Experiments:
Assay type in all cases: cell-based
[1] = tested on: Escherichia coli ATCC25922 B1; experiment: MIC determination according to CLSI; details: Escherichia coli ATCC25922, strain B1
From the text: (§1) For example, the compounds of the present invention show antimicrobial, e.g. antibacterial, activity against gram positive bacteria, such as coagulase-positive and coagulase-negative Staphylococci, e.g. Staphylococcus aureus, Styphylococcus epidermis, Staphylococcus haemolyticus, Streptococci, e.g. Streptococcus pyogenes, Streptococcus pneumoniae, Streptococcus agalacticae, Enterococci, e.g. Enterococcus faecium and Moraxellaceae, e.g. Moraxella catarrhalis, Pasteurellaceae, e.g. Haemophilus influenzae, as well as against Mycoplasmactaceae, Chlamydiaceae, e.g. Chlamydia trachomatis, Chlamydia pneumoniae and obligatory anaerobes, e.g. Bacteroides fragilis, Clostridium difficile; in vitro in the Agar Dilution Test or Microdilution Test according to the Clinical and Laboratory Standards Institute (CLSI, former National Committee for Clinical Laboratory Standards (NCCLS) 2006, Document M7-A7 Vol. 26, No. 2: “Methods for dilution Antimicrobial Susceptibility Tests for Bacteria that Grow Aerobically—Seventh Edition, Approved Standard”; and in the in vitro determination of the antibacterial activity against anaerobic bacteria according to National Committee for Clinical Laboratory Standards (NCCLS) VOL. 24, No. 2, M11-A5, Methods for Antimicrobal Susceptibility Testing of Anaerobic Bacteria; Approved Standard; Sixth Edition (2004) and in vivo in the septicaemic mouse model against Staphylococcus aureus.
(§2) The antibacterial activity expressed as minimal inhibitory concentration (MIC) was determined according to the approved standard reference recommendations of CLSI (former NCCLS).

[2] = tested on: Enterococcus faecalis ATCC51299 B5; experiment: MIC determination according to CLSI; details: Enterococcus faecalis ATCC51299, strain B5
From the text: as §1, §2

[3] = tested on: Staphylococcus aureus (MSSA) ATCC29213 B7; experiment: MIC determination according to CLSI; details: Staphylococcus aureus (MSSA) ATCC29213, strain B7
From the text: as §1, §2

[4] = tested on: Staphylococcus aureus (MSSA) ATCC10390 B6; experiment: MIC determination according to CLSI; details: Staphylococcus aureus (MSSA) ATCC10390, strain B6
From the text: as §1, §2

[5] = tested on: Enterococcus faecalis ATCC29212 B4; experiment: MIC determination according to CLSI; details: Enterococcus faecalis ATCC29212, strain B4
From the text: as §1, §2

[6] = tested on: Moraxella catarrhalis ATCC43618 B407; experiment: MIC determination according to CLSI; details: Moraxella catarrhalis ATCC43618, strain B407
From the text: as §1, §2

[7] = tested on: Streptococcus pneumoniae ATCC49619 B11; experiment: MIC determination according to CLSI; details: Streptococcus pneumoniae ATCC49619, strain B11
From the text: as §1, §2

[8] = tested on: Staphylococcus aureus, Enterococcus faecalis, Streptococcus pneumoniae, Moraxella catarrhalis and Escherichia coli; experiment: Antibacterial activity (MIC) against panel of clinical relevant bacterial pathogens; details: for activity against the clinical relevant bacterial pathogens: in vitro, statement in words
Procedure: as §2

Compound	MIC ([1]; read-out: MIC)	MIC ([2]; read-out: MIC)	MIC ([3]; read-out: MIC)	MIC ([4]; read-out: MIC)	MIC ([5]; read-out: MIC)	MIC ([6]; read-out: MIC)	MIC ([7]; read-out: MIC)	factor by which MICs are lower than the MICs of the comparator compounds ([8]; against at least one of the strains shown in Table 1, comparators examples 3, 6, 9, 12, 14 and 17)	activity against the clinical relevant bacterial pathogens [8]	MIC [1]	MIC [2]	MIC [3]	MIC [4]	MIC [5]	MIC [6]	MIC [7]
C=C[C@]1(C)C[C@@H](OC(=O)CSc2cccc(OC)c2)[C@]2(C)C(C)CCC3(CCC(=O)C32)[C@@H](C)[C@@H]1O (stereo partly shown) [Example 10, 14-O-[(3-Methoxy-phenylsulfanyl)-acetyl]-mutilin]	> 25.6 µg/mL	> 25.6 µg/mL	0.025 µg/mL (≈ 0.0499 µM)	0.025 µg/mL (≈ 0.0499 µM)	> 25.6 µg/mL	≤ 0.0125 µg/mL	0.04 µg/mL (≈ 0.0799 µM)		very good activity							
C=C[C@]1(C)C[C@@H](OC(=O)CSc2cccc(O)c2)[C@]2(C)C(C)CCC3(CCC(=O)C32)[C@@H](C)[C@@H]1O (stereo partly shown) [Example 7, 14-O-[(3-Hydroxy-phenylsulfanyl)-acetyl]-mutilin]	> 25.6 µg/mL	> 25.6 µg/mL	≤ 0.0125 µg/mL	≤ 0.0125 µg/mL	> 25.6 µg/mL	≤ 0.0125 µg/mL	0.02 µg/mL (≈ 0.0411 µM)		very good activity							
C=C[C@]1(C)C[C@@H](OC(=O)CSc2ccc(F)cc2F)[C@]2(C)C(C)CCC3(CCC(=O)C32)[C@@H](C)[C@@H]1O (stereo partly shown) [Example 6, 14-O-[(2,4-Difluoro-phenylsulfanyl)-acetyl]-mutilin]	> 25.6 µg/mL	> 25.6 µg/mL	0.1 µg/mL (≈ 0.197 µM)	0.1 µg/mL (≈ 0.197 µM)	> 25.6 µg/mL	0.05 µg/mL (≈ 0.0987 µM)	0.32 µg/mL (≈ 0.632 µM)									
C=C[C@]1(C)C[C@@H](OC(=O)CSc2cccc(F)c2)[C@]2(C)C(C)CCC3(CCC(=O)C32)[C@@H](C)[C@@H]1O (stereo partly shown) [Example 1, 14-O-[(3-Fluoro-phenylsulfanyl)-acetyl]-mutilin]	> 25.6 µg/mL	> 25.6 µg/mL	≤ 0.0125 µg/mL	≤ 0.0125 µg/mL	3.2 µg/mL (≈ 6.55 µM)	≤ 0.0125 µg/mL	0.04 µg/mL (≈ 0.0819 µM)	≥ 2	very good activity							
C=C[C@]1(C)C[C@@H](OC(=O)CSc2ccccc2O)[C@]2(C)C(C)CCC3(CCC(=O)C32)[C@@H](C)[C@@H]1O (stereo partly shown) [Example 9, 14-O-[(2-Hydroxy-phenylsulfanyl)-acetyl]-mutilin]	> 25.6 µg/mL	> 25.6 µg/mL	≤ 0.0125 µg/mL	≤ 0.0125 µg/mL	> 25.6 µg/mL	≤ 0.0125 µg/mL	0.16 µg/mL (≈ 0.329 µM)									
C=C[C@]1(C)C[C@@H](OC(=O)CSc2ccccc2F)[C@]2(C)C(C)CCC3(CCC(=O)C32)[C@@H](C)[C@@H]1O (stereo partly shown) [Example 3, 14-O-[(2-Fluoro-phenylsulfanyl)-acetyl]-mutilin]	> 25.6 µg/mL	> 25.6 µg/mL	0.05 µg/mL (≈ 0.102 µM)	0.05 µg/mL (≈ 0.102 µM)	> 25.6 µg/mL	0.025 µg/mL (≈ 0.0512 µM)	0.16 µg/mL (≈ 0.327 µM)									
C=C[C@]1(C)C[C@@H](OC(=O)COc2cccc(C)c2)[C@]2(C)[C@H](C)CC[C@]3(CCC(=O)[C@H]32)[C@@H](C)[C@@H]1O [Example 19, 14-O-[(3-Methyl-phenoxy)-acetyl]-mutilin]										>6.4 µg/mL	>6.4 µg/mL	0.05 µg/mL (≈ 0.107 µM)	0.05 µg/mL (≈ 0.107 µM)	>6.4 µg/mL	0.0125 µg/mL (≈ 0.0267 µM)	0.64 µg/mL (≈ 1.37 µM)

Further lines, with some results ahead:

MIC ([1]; read-out: MIC)	MIC ([2]; read-out: MIC)	MIC ([3]; read-out: MIC)	MIC ([4]; read-out: MIC)	MIC ([5]; read-out: MIC)	MIC ([6]; read-out: MIC)	MIC ([7]; read-out: MIC)	factor by which MICs are lower than the MICs of the comparator compounds ([8]; against at least one of the strains shown in Table 1, comparators examples 3, 6, 9, 12, 14 and 17)	Compound	activity against the clinical relevant bacterial pathogens [8]	MIC [1]	MIC [2]	MIC [3]	MIC [4]	MIC [5]	MIC [6]	MIC [7]
> 25.6 µg/mL	> 25.6 µg/mL	0.2 µg/mL (≈ 0.399 µM)	0.2 µg/mL (≈ 0.399 µM)	> 25.6 µg/mL	0.1 µg/mL (≈ 0.2 µM)	0.16 µg/mL (≈ 0.32 µM)		C=C[C@]1(C)C[C@@H](OC(=O)CSc2ccccc2OC)[C@]2(C)C(C)CCC3(CCC(=O)C32)[C@@H](C)[C@@H]1O (stereo partly shown) [Example 12, 14-O-[(2-Methoxy-phenylsulfanyl)-acetyl]mutilin]								
> 25.6 µg/mL	25.6 µg/mL (≈ 54.4 µM)	0.025 µg/mL (≈ 0.0531 µM)	0.025 µg/mL (≈ 0.0531 µM)	12.8 µg/mL (≈ 27.2 µM)	≤ 0.0125 µg/mL	0.04 µg/mL (≈ 0.085 µM)		C=C[C@]1(C)C[C@@H](OC(=O)COc2cccc(O)c2)[C@]2(C)C(C)CCC3(CCC(=O)C32)[C@@H](C)[C@@H]1O (stereo partly shown) [Example 15, 14-O-[(3-Hydroxy-phenoxy)-acetyl]-mutilin]	very good activity							
> 6.4 µg/mL	> 6.4 µg/mL	0.05 µg/mL (≈ 0.106 µM)	0.05 µg/mL (≈ 0.106 µM)	> 6.4 µg/mL	0.0125 µg/mL (≈ 0.0266 µM)	0.16 µg/mL (≈ 0.34 µM)		C=C[C@]1(C)C[C@@H](OC(=O)COc2ccccc2O)[C@]2(C)C(C)CCC3(CCC(=O)C32)[C@@H](C)[C@@H]1O (stereo partly shown) [Example 17, 14-O-[(2-Hydroxy-phenoxy)-acetyl]-mutilin]								
> 6.4 µg/mL	> 6.4 µg/mL	0.05 µg/mL (≈ 0.103 µM)	0.025 µg/mL (≈ 0.0516 µM)	> 6.4 µg/mL	0.0125 µg/mL (≈ 0.0258 µM)	0.16 µg/mL (≈ 0.33 µM)		C=C[C@]1(C)C[C@@H](OC(=O)CSc2cccc(C)c2)[C@]2(C)C(C)CCC3(CCC(=O)C32)[C@@H](C)[C@@H]1O (stereo partly shown) [Example 14, 14-O-[(3-Methyl-phenylsulfanyl)-acetyl]-mutilin]								

Reference: patent US9061980B2, “Organic compounds” (NABRIVA THERAPEUTICS, AG, priority 2007, dated 2015)
